Data reported in BindingDB's records for doi:10.1021/cb300671s (National Cancer Institute-Bethesda, 2013).

Key:
[1] = molecular target: Protein kinase C beta type (Homo sapiens, UniProt P05771)
[2] = molecular target: Protein kinase C alpha type (Homo sapiens, UniProt P17252)
[3] = molecular target: T1, Protein kinase C epsilon type (Homo sapiens, UniProt Q02156)
T1 sequence (Q02156 whole entry): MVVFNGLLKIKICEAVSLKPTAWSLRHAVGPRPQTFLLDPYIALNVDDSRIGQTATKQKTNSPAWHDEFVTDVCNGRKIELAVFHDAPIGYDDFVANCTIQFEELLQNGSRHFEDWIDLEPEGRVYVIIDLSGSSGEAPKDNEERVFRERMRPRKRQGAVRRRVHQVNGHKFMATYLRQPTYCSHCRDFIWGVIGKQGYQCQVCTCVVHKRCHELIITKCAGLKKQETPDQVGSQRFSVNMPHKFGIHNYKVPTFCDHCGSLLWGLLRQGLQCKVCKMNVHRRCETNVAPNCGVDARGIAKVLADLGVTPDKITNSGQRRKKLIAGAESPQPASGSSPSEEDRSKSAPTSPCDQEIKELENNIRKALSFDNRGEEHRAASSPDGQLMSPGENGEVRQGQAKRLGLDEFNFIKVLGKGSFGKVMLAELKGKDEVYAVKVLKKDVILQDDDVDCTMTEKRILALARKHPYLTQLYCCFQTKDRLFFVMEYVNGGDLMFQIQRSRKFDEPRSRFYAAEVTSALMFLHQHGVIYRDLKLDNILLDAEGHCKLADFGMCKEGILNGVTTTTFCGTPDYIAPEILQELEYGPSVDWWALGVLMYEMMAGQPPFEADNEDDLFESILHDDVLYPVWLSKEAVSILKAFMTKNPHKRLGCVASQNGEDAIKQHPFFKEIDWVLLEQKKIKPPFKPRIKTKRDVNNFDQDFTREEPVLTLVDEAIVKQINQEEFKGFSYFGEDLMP

[4] = molecular target: Protein kinase C (Mus musculus, UniProt Q4VA93)
[5] = molecular target: Protein kinase C delta type (Homo sapiens, UniProt Q05655)
Chain of Protein kinase C delta type (Q05655 whole entry): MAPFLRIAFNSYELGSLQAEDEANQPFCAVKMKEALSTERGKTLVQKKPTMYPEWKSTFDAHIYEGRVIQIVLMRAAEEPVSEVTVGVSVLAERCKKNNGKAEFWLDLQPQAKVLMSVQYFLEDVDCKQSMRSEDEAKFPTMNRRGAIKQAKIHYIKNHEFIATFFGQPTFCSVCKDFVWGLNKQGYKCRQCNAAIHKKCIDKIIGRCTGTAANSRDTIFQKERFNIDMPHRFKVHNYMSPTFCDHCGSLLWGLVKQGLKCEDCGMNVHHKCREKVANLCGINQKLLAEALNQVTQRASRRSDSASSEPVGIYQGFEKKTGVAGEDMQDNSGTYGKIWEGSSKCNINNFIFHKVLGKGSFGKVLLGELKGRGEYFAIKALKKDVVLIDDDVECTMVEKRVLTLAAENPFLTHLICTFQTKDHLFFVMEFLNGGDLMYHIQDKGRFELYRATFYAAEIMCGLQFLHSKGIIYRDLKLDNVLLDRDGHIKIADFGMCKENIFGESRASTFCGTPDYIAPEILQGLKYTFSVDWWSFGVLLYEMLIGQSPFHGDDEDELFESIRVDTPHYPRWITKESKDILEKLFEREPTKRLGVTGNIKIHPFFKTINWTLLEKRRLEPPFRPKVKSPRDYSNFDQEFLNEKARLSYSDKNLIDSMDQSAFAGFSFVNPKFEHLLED

Chain of Protein kinase C beta type (P05771 whole entry): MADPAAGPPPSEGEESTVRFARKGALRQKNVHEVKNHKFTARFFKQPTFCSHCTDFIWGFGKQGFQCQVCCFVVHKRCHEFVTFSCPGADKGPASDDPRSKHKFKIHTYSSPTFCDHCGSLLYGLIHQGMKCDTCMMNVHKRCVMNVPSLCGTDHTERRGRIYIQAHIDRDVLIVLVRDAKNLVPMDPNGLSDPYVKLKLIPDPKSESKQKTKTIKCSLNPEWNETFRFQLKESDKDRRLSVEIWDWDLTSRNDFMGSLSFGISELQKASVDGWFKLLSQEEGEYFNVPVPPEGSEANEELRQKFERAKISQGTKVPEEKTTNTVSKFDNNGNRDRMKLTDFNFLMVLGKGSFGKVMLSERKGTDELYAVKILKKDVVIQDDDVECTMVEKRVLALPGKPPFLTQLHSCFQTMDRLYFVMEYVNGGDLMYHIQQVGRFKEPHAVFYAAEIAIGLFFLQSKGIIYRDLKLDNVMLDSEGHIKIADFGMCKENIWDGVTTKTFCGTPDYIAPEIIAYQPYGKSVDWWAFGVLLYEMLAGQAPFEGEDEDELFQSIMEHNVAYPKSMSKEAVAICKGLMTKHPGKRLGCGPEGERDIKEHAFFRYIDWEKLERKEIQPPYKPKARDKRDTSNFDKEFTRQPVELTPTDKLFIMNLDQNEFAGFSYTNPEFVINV

Compound	Kd [1]	Kd [2]	Kd [3]	Kd [4]	Kd [5]
CCC/C=C/C=C/C(=O)O[C@H]1/C(=C/C(=O)OC)C[C@H]2C[C@H]([C@@H](C)O)OC(=O)C[C@H](O)C[C@@H]3C[C@H](OC(C)=O)C(C)(C)[C@](O)(C[C@@H]4C/C(=C/C(=O)OC)C[C@H](/C=C/C(C)(C)[C@]1(O)O2)O4)O3	0.42 nM	0.73 nM	0.24 nM	0.48 nM	
COC(=O)/C=C1/C[C@H]2C[C@]3(O)O[C@H](C[C@@H](O)CC(=O)O[C@@H]([C@@H](C)O)C[C@@H]4C/C(=C\C(=O)OC)[C@H](OC(C)=O)[C@@](O)(O4)C(C)(C)/C=C/[C@@H](C1)O2)C[C@H](OC(C)=O)C3(C)C [Bryostatin]	0.32 nM	0.44 nM	0.16 nM	0.26 nM	0.21 nM
CCCC(=O)O[C@@H]1[C@@H](C)[C@@]2(O)[C@@H](C=C(CO)C[C@@]3(O)C(=O)C(C)=C[C@@H]23)[C@H]2C(C)(C)[C@]12OC(=O)CCC [Butyric acid (1aS,1bS,4aS,7aS,8R,9S,9aR)-9-butyryloxy-4a,7b-dihydroxy-3-((R)-hydroxymethyl)-1,1,6,8-tetramethyl-5-oxo-1,1a,1b,4,4a,5,7a,7b,8,9-decahydro-cyclopropa[3,4]benzo[1,2-e]azulen-9a-yl ester]				0.3 nM	
